Test results from paper PMC11642016 (International Journal of Molecular Sciences, 2024).
Several values for one entry are separate records, joined by “and”; a condition that tells them apart may be missing. Identical values can stand only once. Like-named read-outs stand apart in the source and are kept apart here.

Key:
[1] = tested on: PANC-1 and Fadu cells; assay: CellTiter-Glo viability, statements covering both cancer cell lines; format: cell-based, human; details: 72 h dose–response
[2] = tested on: Fadu cells; assay: CellTiter-Glo luminescent cell viability assay, Fadu
[3] = tested on: HEK293T WT cells; assay: CellTiter-Glo cell viability assay, HEK293T WT; details: for HEK293T WT Cell viability (% of controll): dose–response, individual replicates
Description: (§1) Primary fibroblast cultures were prepared from human skin biopsies and maintained in DMEM supplemented with 10% FBS, 1% penicillin-streptomycin, and 1% MEM Non-Essential Amino Acids Solution (Thermo Fisher Scientific). […] All cell lines were cultured in a humidified atmosphere at 37 °C and 5% CO2, passaged twice a week, and the experiments were performed on cells between passage 5 and 15. The cell lines were routinely screened for the absence of mycoplasma infection (DAPI staining).
(§2) The effects of the synthesized compounds on cell viability were measured using the CellTiter-Glo® luminescent cell viability assay (Promega, Madison, WI, USA), according to the manufacturer’s instructions. Briefly, cells were seeded onto a flat-bottomed, white 96-well plate (BRANDplates, cat. no.: 781965)), with the following densities: PANC-1: 750 cells/well, Fadu: 2000 cells/well, primary fibroblasts: 2000 cells/well, HEK293T WT: 1000 cells/well, HEK293T CLPP^−/−: 2500 cells/well. After seeding, cells were incubated for a further 48 h before treatment. Cells were treated with the compounds for 72 h. Three concentrations (25.0 µM; 8.3 µM; 2.8 µM) were applied during the initial cell viability screening, while for the determination of dose–response curves, 1.5-fold serially diluted compound concentrations were applied (range: 26 µM–0.7 µM). After treatment, the luminescence signal was recorded using a microplate reader (BioTek Synergy 2 Multi-Mode Reader, BioTek, Winooski, VT, USA).
(§3) Data analysis was performed using GraphPad Prism 9.5.0 software (GraphPad Software, San Diego, CA, USA). […] The dose–response curves were generated by four-parameter nonlinear regression, and the IC50 values were determined as the means ± SEM of the best-fit values of 3 independent measurements. The R^2 values were consistently above 0.93, indicating a strong fit of the model to the experimental data (Supplementary S.89). […] Dunnett’s post hoc test was applied to adjust for multiple comparisons, minimizing the likelihood of false positive results. Assumptions for ANOVA, including normality (assessed via QQ plots) and homogeneity of variance (tested using the Brown–Forsythe test), were verified. The following significance levels were applied: * p < 0.05, ** p < 0.01, *** p < 0.001, **** p < 0.0001. […] The tumor selectivity of the compounds was quantitatively characterized by the selectivity index (SI). This parameter was calculated as the ratio of the average best-fit IC50 value for primary fibroblasts and the best-fit IC50 value for the corresponding tumor cells (PANC-1 or Fadu).

[4] = CellTiter-Glo cell viability assay, HEK293T WT; details: human, HEK293T WT cells, HEK293T WT Cell viability (% of controll), 72 h, dose–response, individual replicates
Description: as §1, §2, §3

[5] = tested on: PANC-1 cells; assay: Colony formation (clonogenic) assay; format: cell-based, human; details: 4 µM
[6] = CellTiter-Glo luminescent cell viability assay, primary fibroblasts; details: human, primary skin fibroblasts (non-tumorous), Primer fibroblast Cell viability (% of controll), 72 h, dose–response, individual replicates
Description: as §1, §2, §3

CNCC#Cc1cccc(CN2C(=O)C3=C(CCN(Cc4ccc(-n5cc(-c6ccccc6)nn5)cc4)C3)N3CCN=C23)c1 [38b]
concentration range of almost complete eradication of PANC-1 and Fadu cells with little to no cytotoxic effect toward fibroblasts [1]: 3 to 4 µM
Fadu Cell viability (% of controll) ([2]; 0.7 μM, 72 h, dose–response, individual replicates): 108 % of controll and 109 % of controll
Fadu Cell viability (% of controll) ([2]; 1 μM, 72 h, dose–response, individual replicates): 109 % of controll and 105 % of controll
Fadu Cell viability (% of controll) ([2]; 1.5 μM, 72 h, dose–response, individual replicates): 105 % of controll and 106 % of controll
Fadu Cell viability (% of controll) ([2]; 2.3 μM, 72 h, dose–response, individual replicates): 99 % of controll and 98 % of controll
Fadu Cell viability (% of controll) ([2]; 3.4 μM, 72 h, dose–response, individual replicates): 70 % of controll and 37 % of controll and 29 % of controll
Fadu Cell viability (% of controll) ([2]; 5.1 μM, 72 h, dose–response, individual replicates): 10 % of controll and 1 % of controll and 2 % of controll
Fadu Cell viability (% of controll) ([2]; 7.7 μM, 72 h, dose–response, individual replicates): 0 % of controll
Fadu Cell viability (% of controll) ([2]; 17.3 μM, 72 h, dose–response, individual replicates): 0 % of controll
Fadu Cell viability (% of controll) ([2]; 26 μM, 72 h, dose–response, individual replicates): 0 % of controll
viability at 2.8 µM ([2]; Homo sapiens, FaDu, 72 h, read-out: Cell Viability (% of Control) 2.8 µM, Fadu, 2.8 µM, 72 h, second-set screening, mean ± SD, n = 2): 91 ± 17%
viability at 8.3 µM ([2]; Homo sapiens, FaDu, 72 h, read-out: Cell Viability (% of Control) 8.3 µM, Fadu, 8.3 µM, 72 h, second-set screening, mean ± SD, n = 2): 0%
viability at 25 µM ([2]; Homo sapiens, FaDu, 72 h, read-out: Cell Viability (% of Control) 25 µM, Fadu, 25 µM, 72 h, second-set screening, mean ± SD, n = 2): 0%
viability at 0.7 µM ([2]; Homo sapiens, FaDu, 72 h, read-out: Fadu Cell viability (% of controll), 0.7 μM, 72 h, dose–response, individual replicates): 103%
viability at 1 µM ([2]; Homo sapiens, FaDu, 72 h, read-out: Fadu Cell viability (% of controll), 1 μM, 72 h, dose–response, individual replicates): 113%
viability at 1.5 µM ([2]; Homo sapiens, FaDu, 72 h, read-out: Fadu Cell viability (% of controll), 1.5 μM, 72 h, dose–response, individual replicates): 104%
viability at 2.3 µM ([2]; Homo sapiens, FaDu, 72 h, read-out: Fadu Cell viability (% of controll), 2.3 μM, 72 h, dose–response, individual replicates): 104%
viability at 7.7 µM ([2]; Homo sapiens, FaDu, 72 h, read-out: Fadu Cell viability (% of controll), 7.7 μM, 72 h, dose–response, individual replicates): 0%
viability at 17.3 µM ([2]; Homo sapiens, FaDu, 72 h, read-out: Fadu Cell viability (% of controll), 17.3 μM, 72 h, dose–response, individual replicates): 0%
viability at 26 µM ([2]; Homo sapiens, FaDu, 72 h, read-out: Fadu Cell viability (% of controll), 26 μM, 72 h, dose–response, individual replicates): 0%
IC50 ([2]; Homo sapiens, FaDu, 72 h, read-out: IC50 Value ± SEM Fadu, 72 h treatment, best-fit values, n = 3): 3.3 ± 0.07 µM
Selectivity Index (SI) Fibroblast/Fadu ([2]; ratio of mean best-fit IC50 for primary fibroblasts and best-fit IC50 for Fadu): 1.3
HEK293T WT Cell viability (% of controll) ([3]; 0.4 μM, 72 h): 116 % of controll and 117 % of controll and 121 % of controll
HEK293T WT Cell viability (% of controll) ([3]; 0.6 μM, 72 h): 110 % of controll and 120 % of controll and 116 % of controll
HEK293T WT Cell viability (% of controll) ([3]; 1.0 μM, 72 h): 110 % of controll and 102 % of controll
HEK293T WT Cell viability (% of controll) ([3]; 1.6 μM, 72 h): 66 % of controll and 67 % of controll and 83 % of controll
HEK293T WT Cell viability (% of controll) ([3]; 2.5 μM, 72 h): 6 % of controll and 15 % of controll and 12 % of controll (2×)
HEK293T WT Cell viability (% of controll) ([3]; 4.0 μM, 72 h): 0 % of controll
HEK293T WT Cell viability (% of controll) ([3]; 6.4 μM, 72 h): 0 % of controll
HEK293T WT Cell viability (% of controll) ([3]; 16.25 μM, 72 h): 0 % of controll
HEK293T WT Cell viability (% of controll) ([3]; 26 μM, 72 h): 0 % of controll
IC50 ([3]; Homo sapiens, HEK-293T, 72 h, read-out: IC50 (µM) HEK293T WT, 72 h treatment, ± SEM, best-fit values, n = 4): 1.7 ± 0.02 µM
IC50 ([3]; Homo sapiens, HEK-293T, read-out: HEK293T WT IC50 values, Mean, mean of independently fitted replicate IC50 values (Supplement S.6)): 1.67 µM
IC50 ([3]; Homo sapiens, HEK-293T, read-out: HEK293T WT IC50 values, individual replicates n1-n4, IC50 independently determined for each replicate measurement (Supplement S.6)): 1.61 µM
IC50 ([3]; read-out: HEK293T WT IC50 values, individual replicates n1-n4, IC50 independently determined for each replicate measurement (Supplement S.6)): 1.66 µM and 1.63 µM and 1.79 µM
viability at 72 h, 0.4 µM ([4]; 0.4 μM): 121%
viability at 72 h, 0.6 µM ([4]; 0.6 μM): 107%
viability at 72 h, 1 µM ([4]; 1.0 μM): 109%
viability at 72 h, 1.6 µM ([4]; 1.6 μM): 64%
viability at 72 h, 4 µM ([4]; 4.0 μM): 0%
viability at 72 h, 6.4 µM ([4]; 6.4 μM): 0%
viability at 72 h, 16.25 µM ([4]; 16.25 μM): 0%
viability at 72 h, 26 µM ([4]; 26 μM): 0%
viable cells / colonies after shorter exposure ([5]; 24 h treatment followed by 5 days post-incubation): left only traces of viable cells
viable cells / colonies after longer exposure ([5]; 72 h treatment followed by 3 days post-incubation): no viable cells were discernible
viability at 72 h, 0.7 µM ([6]; 0.7 μM): 103%
viability at 72 h, 1 µM ([6]; 1 μM): 112%
viability at 72 h, 1.5 µM ([6]; 1.5 μM): 106%
viability at 72 h, 2.3 µM ([6]; 2.3 μM): 116%
